# Assay results published in patent US20170246137A1, “SULFESTROL FOR TREATING CANCER” (CHAMAELEO PHARMA BVBA, priority 2012, published 2017).
# Where “and” joins values, the source holds several entries; their conditions need not be identical. Equal values may be shown once.
# Tests used:
# [1] = orally administered, daily doses of 2 mg; cited from earlier work
# [2] = system: platelet-rich plasma (PRP); test: Platelet-aggregation-inducing effects in platelet-rich plasma, absorbance 630 nm; assay type: cell-based; details: 7 minutes, human PRP
# Experimental: Blood necessary to generate PRP was obtained from 4 healthy human volunteers. 100 ml of fresh venous blood from each donor was isolated directly into tubes containing 1/10th volume of the anti-coagulant Tri-Sodium Citrate (3.2% w/v). The blood and anti-coagulant were immediately mixed and the final concentration of Tri-Sodium Citrate was 0.0106 M.
# PRP was prepared by centrifugation of anti-coagulated blood at 180 g for 10 minutes at room temperature. The cloudy yellow supernatant containing the platelets was removed and placed into a clean polypropylene tube. Platelet-poor plasma (PPP) was prepared by centrifuging the remaining sample at 1,200 g for 20 minutes at room temperature. The PRP was adjusted to a suitable platelet count and absorbance at 630 nm by addition of PPP.
# All three compounds were dissolved in 100% DMSO to give a stock concentration of 60 mM. […] […] 100 nM gamma thrombin (Cambridge bioscience) was used as control for platelet aggregation. 90 μl aliquots of PRP were added to 96 wells plates. A baseline absorbance reading was taken at 630 nm. 5 μl of the compounds and gamma thrombin control was added to the appropriate PRP.
# The plates were incubated at room temperature for 7 minutes on a plate shaker with continuous shaking. A second A630 nm reading was made after the 7 minutes incubation to measure any platelet aggregation induced by the compounds.
# [3] = In vitro metabolism in human liver microsomes (STS and CYP); assay type: in vitro ADME; design: Clint: unit not given here
# Experimental: In vitro metabolism pathways of DES, Mono-Sulfestrol and Di-Sulfestrol in human liver microsomes were investigated.
# Special emphasis was put on desulfatation by steroid sulfatase (STS) and oxidation by cytochrome P (CYP) metabolism. Liver microsomes (Celsis in vitro Technologies) were used at a concentration of 0.5 mg/ml in a volume of 600 μl phosphate buffer pH 7.4. Estrone-3-sulfate was used as positive control.
# 5 μM of each compound (test and control compound) was added to the liver microsomes and the mixture was incubated at 37° C. for 5, 10, 20, 30, 50, 90 and 120 minutes. After incubation, aliquots of 45 μl were taken which were subsequently quenched with 150 μl ice cold methanol. Aliquots were incubated ≧1 h at −20° C. for protein precipitation. After precipitation, samples were centrifuged and remaining supernatant was used for analysis with LC-MS/MS. Half life of the compounds, speed of metabolism or intrinsic clearance (Clint), and contribution to metabolism of CYP and STS metabolism were calculated based on the data obtained at each time point.
# [4] = Concentration of Mono-Sulfestrol in pooled plasma samples, LC-UV quantification; assay type: in vivo, male Sprague Dawley rats; details: 10 mg/kg of the labelled compound, rat, pooled 0.5-8 hrs
# Experimental: The concentration of Mono-Sulfestrol in the pooled samples described in Example 6 was quantified by LC-UV quantification.
# A calibration standard solution was prepared as 10,000 ng/mL by adding an appropriate amount of Mono-Sulfestrol into 20% acetonitrile/0.1% formic acid in water. The peak area of the standard solution and the sample were measured with the wavelength set at 200 to 360 nm. The concentration levels of Mono-Sulfestrol were estimated using peak area (Area) of the standard and unknown samples and concentration of the standard (Concstd) by the following equation:
# Areaunknown/Areastd=Concunknown/Concstd
# Concunknown=Concstd·(Areaunknown/Areastd)
# [5] = Estrogenic activity: body weight and plasma cholesterol levels; assay type: in vivo, male Sprague-Dawley rats; details: for Mean bodyweight: in g (unit assumed)
# Experimental: Estrogenic activity was determined by measuring body weight and plasma cholesterol levels.
# Each animal was dosed three times a day with vehicle or test compound (1st dose 7:30-8:00, 2nd dose 12:30-13:00, 3rd dose 17:00-17:30) for 14 consecutive days.
# After 14 days treatment, blood was collected from the animals via cardiac puncture 4 hrs past final dosing to analyze plasma cholesterol levels. The blood was immediately transferred to a tube containing 0.5M EDTA anticoagulant. It was mixed gently and centrifuged at 1000×g at 4° C. for 15 min. Plasma was aspirated from the centrifuged blood samples, quick frozen on dry ice and stored at −80° C. for later use.
# Plasma cholesterol levels were determined using a commercial ELISA kit obtained from NovaTeinBio (BG-RAT11262). Standard protocol accompanied by the kit was used without any adjustments.
# MDA-MB-231 Dlux = test: Orthotopic spontaneous metastasis breast model, whole body bioluminescence; assay type: in vivo, female MF-1 nude mice; details: for total flux, whole body bioluminescence: mono-Sulfestrol 60 mg/kg, di-Sulfestrol 80 mg/kg orally once a day
# Experimental: Female MF-1 nude mice (HsdOla:MF1-Foxn1nu, Harlan, UK) were divided into 3 groups of each 8 mice (n=8):
# The mice were 5-6 weeks old at the start of the study and were maintained in sterile isolators within a barriered unit illuminated by fluorescent lights set to give a 12 hour light-dark cycle (on 07.00, off 19.00). The room was air-conditioned to maintain an air temperature range of 23±2° C. Sterile irradiated 2019 rodent diet (Harlan Teklad UK, product code Q219DJ1R2) and autoclaved water were offered ad libitum.
# The MDA-MB-231 Dlux cells were maintained in vitro in RPMI containing 2 mM L-Glut and (Life Technologies, UK) and 10% (v/v) heat-inactivated foetal bovine serum (Sigma, Poole, UK) at 37° C. in 5% CO2 and humidified conditions. Cells were treated with Zeocin once a week at 0.4 mg/mL.
# On the day of initiation cells were harvested from semi-confluent monolayers with 0.05% Trypsin-EDTA, washed twice in the culture medium and counted. Cells with viability of >90% were re-suspended, for in vivo administration, in 1:1 PBS:Matrigel at 2×10^6 cells/0.1 mL. Prior to injection, the cell suspension was homogenized and 0.1 mL of cell suspension was drawn into a 1 mL syringe. The cell suspension was then injected orthotopically into the lower left-side 2nd mammary fat pad of each mouse under anaesthesia (Medetomidine/Ketamine).
# On day 7 after initiation and every six days thereafter, the mice were injected (s.c.) with 150 mg/kg D-Luciferin. 10 minutes following administration of D-Luciferin mice were anaesthetised and 15 minutes after administration they were placed into an imaging chamber (Spectrum CT) and imaged for luminescence (ventral view; whole body and shielding of the primary tumor). Images were captured and processed by Living Image 4.3.1 software (Caliper LS, US.).
# On day 7 after initiation mice were assigned to groups such that there was a uniform mean bioluminescent signal between the groups.
# [6] = cited from earlier work
# [7] = cited from earlier work; remark: listed apart in the source
# [8] = Metabolites in plasma after oral and intravenous administration, LC-MS/MS; details: 10 mg/kg oral and intravenous
# Experimental: Metabolites were identified after oral and intravenous administration of the compounds.
# Each group consisted of three rats, giving a total of 12 animals. Compounds were dosed at 10 mg/kg for both oral and intravenous administration. A 0.9% saline solution was used as vehicle for oral and intravenous administration.
# Prior to intravenous administration, the solution was filtered through a 0.22 μM filter. Oral dosing was performed using a oral gavage. Tail vein injection was used for intravenous administration.
# At 0.5, 1, 2, 4, 6 and 8 hrs post administration, 0.25 ml blood was drawn from the animals and immediately transferred to prechilled microcentrifuge tubes containing 4 μl of K2-EDTA to prevent coagulation. Plasma was obtained by centrifugation of the plasma and stored at −70° C. until analysis. Plasma drawn from each individual rat was pooled according to the following schedule:
# The pooled samples were analyzed using LC-MS/MS and the relative percentage of each metabolite in the pooled sample was measured on the basis of the mass spectrometric peak areas of the parent and its metabolites in the plasma.
# [9] = nothing added (STS active, CYP inactive), 5 μM
substance,measurement,setting,value
stilbestrol sulfate,estrogenic activity relative to stilbestrol,[1],44%
"4,4′-(hex-3-ene-3,4-diyl)bis(4,1-phenylene) disulfate [Di-Sulfestrol]",Absorbance (630 nm),"[2]; 2.3 μM, high absorbance = low aggregation",0.260 ± 0.030
same,Absorbance (630 nm),[2]; 4.7 μM,0.253 ± 0.024
same,Absorbance (630 nm),[2]; 9.4 μM,0.266 ± 0.039
same,Absorbance (630 nm),[2]; 18.75 μM,0.254 ± 0.025
same,Absorbance (630 nm),[2]; 37.5 μM,0.260 ± 0.027
same,Absorbance (630 nm),[2]; 75 μM,0.264 ± 0.031
same,Absorbance (630 nm),[2]; 150 μM,0.266 ± 0.034
same,metabolism pathway in human liver microsomes (in words),[3],only metabolized by STS enzymes
same,Clint,[3]; [9],31
same,Contribution to metabolism,[3]; [9],85%
same,Half-life,[3]; [9],45 min
same,Mono-Sulfestrol concentration in pooled plasma sample,[4]; intravenous,735.9 ng/ml and 1.7 μM
same,Mono-Sulfestrol concentration in pooled plasma sample,[4]; oral,261.3 ng/ml and 0.6 μM
same,Mean bodyweight,"[5]; Day 0, DES 1.5 mg/kg per day, Di-Sulfestrol 3 mg/kg per day, three doses a day",387 ± 6.9
same,Mean bodyweight,[5]; Day 2,381 ± 8.3
same,Mean bodyweight,[5]; Day 4,368 ± 9.5
same,Mean bodyweight,[5]; Day 6,357 ± 9.2
same,Mean bodyweight,[5]; Day 8,348 ± 8.5
same,Mean bodyweight,[5]; Day 10,344 ± 7.2
same,Mean bodyweight,[5]; Day 12,341 ± 7.5
same,Mean bodyweight,[5]; Day 14,333 ± 6.67
same,Cholesterol (plasma),"[5]; after 14 days treatment, 4 hrs past final dosing, DES 1.5 mg/kg per day, Di-Sulfestrol 3 mg/kg per day",12.1 ± 0.799 nmol/L
same,estrogenic activity in rats (in words),[5]; lowering body weight and cholesterol levels,show estrogenic activity
same,"total flux, whole body bioluminescence",MDA-MB-231 Dlux; Day 7 (before start of treatment),1.73 10^9 photons/second
same,"total flux, whole body bioluminescence",MDA-MB-231 Dlux; Day 13,8.84 10^9 photons/second
same,"total flux, whole body bioluminescence",MDA-MB-231 Dlux; Day 19,16.2 10^9 photons/second
same,effect on tumor progression (in words),"MDA-MB-231 Dlux; oral, MDA-MB-231 Dlux in mice",tumor progression inhibiting effect
same,tolerance (in words),"[6]; mice, intravenously injectable",well tolerated in mice
same,estrogenic activity (in words),"[6]; mouse, in vivo",has estrogenic activity
same,water solubility (in words),[7],water soluble
same,metabolic fate in rat plasma (in words),[8],mostly converted into Mono-Sulfestrol
